# Results reported in patent publication US9328138B2 (priority 2011, dated 2016).
# pKi: −log10 of the molar value.
# Key:
# [1] = target: HCV NS3 protease genotype 3a (3A-1) (Hepatitis C virus genotype 3a, UniProt Q81258); assay: HCV NS3 protease time-resolved fluorescence (TRF) assay, genotype 3a; type: biochemical; conditions: Ki 3a
# Procedure, shortened: (§1)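 NS3/NS4A protease was pre-incubated 10 min with inhibitor in 50 mM HEPES pH 7.5, 150 mM NaCl, 15% glycerol, 0.15% Triton X-100, 10 mM DTT, 0.1% PEG 8000. TRF peptide substrate (25 nM final) was hydrolysed for 6 h at room temperature. IC50 came from four-parameter fits.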
# [2] = target: T1, HCV genotype 1b (BK) NS3 modified enzyme with a R155K mutation (Hepatitis C virus genotype 1b, UniProt P26663, R1181K); assay: HCV NS3 protease time-resolved fluorescence (TRF) assay, genotype 1b R155K; type: biochemical; conditions: Ki 1b R155K
# T1 construct: HCV genotype 1b (BK) NS3 modified enzyme
# Procedure, shortened: as §1
# [3] = genotype 1b (BK) NS3 R155K, single value
# [4] = first of two values printed in the cell (not explained)
# [5] = second of two values printed in the cell (not explained)
Structure (SMILES),pKi [1],"pKi [2, 3]","pKi [2, 4]","pKi [2, 5]"
"C=C[C@@H]1C[C@]1(NC(=O)[C@@H]1C[C@@H]2CN1C(=O)[C@H](C1CCCC1)NC(=O)O[C@@H]1CCC[C@H]1CC/C=C/Cc1c(nc3ccccc3c1OCC)O2)C(=O)NS(=O)(=O)C1CC1 [Example 1, (3aR,7S,10S,12R,21E,24aS)-7-cyclopentyl-N-{(1R,2S)-1-[(cyclopropylsulfonyl)carbamoyl]-2-ethenylcyclopropyl}-19-ethoxy-5,8-dioxo-1,2,3,3a,5,6,7,8,11,12,20,23,24,24a-tetradecahydro-10H-9,12-methanocyclopenta[18,19][1,10,3,6]dioxadiazacyclononadecino[11,12-b]quinoline-10-carboxamide]",8.21,9.60,,
"C=C[C@@H]1C[C@]1(NC(=O)[C@@H]1C[C@@H]2CN1C(=O)[C@H](C1CCCCC1)NC(=O)O[C@@H]1C[C@H]1CCCCCc1c(nc3ccccc3c1CN1CCN(C)CC1)O2)C(=O)NS(=O)(=O)C1(C)CC1 [Example 266, potassium ({(1R,2S)-1-[({(1aR,5S,8S,10R,22aR)-5-cyclohexyl-17-[(4-methylpiperazin-1-yl)methyl]-3,6-dioxo-1,1a,3,4,5,6,9,10,18,19,20,21,22,22a-tetradecahydro-8H-7,10-methanocyclopropa[18,19][1,10,3,6]dioxadiazacyclononadecino[11,12-b]quinolin-8-yl}carbonyl)amino]-2-ethenylcyclopropyl}carbonyl)[(1-methylcyclopropyl)sulfonyl]azanide]",8.12,,10.70,10.36
"C=C[C@@H]1C[C@]1(NC(=O)[C@@H]1C[C@@H]2CN1C(=O)[C@H](C1CCCCC1)NC(=O)O[C@@H]1C[C@H]1CCCCCc1c(nc3ccccc3c1OC1CCN(CCS(C)(=O)=O)CC1)O2)C(=O)NS(=O)(=O)C1(C)CC1 [Example 271, (1aR,5S,8S,10R,22aR)-5-cyclohexyl-N-[(1R,2S)-2-ethenyl-1-{[(1-methylcyclopropyl)sulfonyl]carbamoyl}cyclopropyl]-17-({1-[2-(methylsulfonyl)ethyl]piperidin-4-yl}oxy)-3,6-dioxo-1,1a,3,4,5,6,9,10,18,19,20,21,22,22a-tetradecahydro-8H-7,10-methanocyclopropa[18,19][1,10,3,6]dioxadiazacyclononadecino[11,12-b]quinoline-8-carboxamide]",8.28,,10.64,9.67
"C=C[C@@H]1C[C@]1(NC(=O)[C@@H]1C[C@@H]2CN1C(=O)[C@H](C1CCCC1)NC(=O)O[C@@H]1CCC[C@H]1CC/C=C/Cc1c(nc3cc(Cl)ccc3c1OC)O2)C(=O)NS(=O)(=O)C1CC1 [Example 9, (3aR,7S,10S,12R,21E,24aS)-16-chloro-7-cyclopentyl-N-{(1R,2S)-1-[(cyclopropylsulfonyl)carbamoyl]-2-ethenylcyclopropyl}-19-methoxy-5,8-dioxo-1,2,3,3a,5,6,7,8,11,12,20,23,24,24a-tetradecahydro-10H-9,12-methanocyclopenta [18,19][1,10,3,6]dioxadiazacyclononadecino [11,12-b]quinoline-10-carboxamide]",8.54,9.85,,
"C=C[C@@H]1C[C@]1(NC(=O)[C@@H]1C[C@@H]2CN1C(=O)[C@H](C(C)(C)C)NC(=O)O[C@@H]1C[C@H]1CCCCCc1c(nc3ccccc3c1OCCN1CCOCC1)O2)C(=O)NS(=O)(=O)C1(C)CC1 [Example 113, (1aR,5S,8S,10R,22aR)-5-tert-butyl-N-[(1R,2S)-2-ethenyl-1-{[(1-methylcyclopropyl)sulfonyl]carbamoyl}cyclopropyl]-17-[2-(morpholin-4-yl)ethoxy]-3,6-dioxo-1,1a,3,4,5,6,9,10,18,19,20,21,22,22a-tetradecahydro-8H-7,10-methanocyclopropa[18,19][1,10,3,6]dioxadiazacyclononadecino[11,12-b]quinoline-8-carboxamide]",8.80,10.05,,
"C=C[C@@H]1C[C@]1(NC(=O)[C@@H]1C[C@@H]2CN1C(=O)[C@H](C(C)(C)C)NC(=O)O[C@@H]1CCC[C@H]1CCCCCc1c(nc3ccccc3c1OCCCN1CCOCC1)O2)C(=O)NS(=O)(=O)C1CC1 [Example 98, (3aR,S,10S,12R,24aR)-7-tert-butyl-N-{(1R,2S)-1-[(cyclopropyl-sulfonyl)carbamoyl]-2-ethenylcyclopropyl}-19-[3-(morpholin-4-yl)propoxy]-5,8-dioxo-1,2,3,3a,5,6,7,8,11,12,20,21,22,23, 24,24a-hexadecahydro-10H-9,12-methanocyclopenta [18,19][1,10,3,6]dioxadiazacyclo-nonadecino[11,12-b]quinoline-10-carboxamide]",8.54,9.74,,
"C=C[C@@H]1C[C@]1(NC(=O)[C@@H]1C[C@@H]2CN1C(=O)[C@H](C(C)(C)C)NC(=O)O[C@@H]1C[C@H]1CCCCCc1c(nc3ccccc3c1OCCN1CCC(C)(O)CC1)O2)C(=O)NS(=O)(=O)C1(C)CC1 [Example 175, (1aR,5S,8S,10R,22aR)-5-tert-butyl-N-[(1R,2S)-2-ethenyl-1-{[(1-methylcyclopropyl)sulfonyl]carbamoyl}cyclopropyl]-17-[2-(4-hydroxy-4-methylpiperidin-1-yl)ethoxy]-3,6-dioxo-1,1a,3,4,5,6,9,10,18,19,20,21,22,22a-tetradeca hydro-8H-7,10-methanocyclopropa[18,19][1,10,3,6] dioxadiazacyclononadecino[11,12-b] quinoline-8-carboxamide]",9.05,10.04,,
"C=C[C@@H]1C[C@]1(NC(=O)[C@@H]1C[C@@H]2CN1C(=O)[C@H](C(C)(C)C)NC(=O)O[C@@H]1CCC[C@H]1CC/C=C/Cc1c(nc3ccccc3c1OCCCO)O2)C(=O)NS(=O)(=O)C1(C)CC1 [Example 71, (3aR,7S,10S,12R,21E,24aS)-7-tert-butyl-N-[(1R,2S)-2-ethenyl-1-{[(1-methylcyclopropyl)sulfonyl]carbamoyl}cyclopropyl]-19-(3-hydroxypropoxy)-5,8-dioxo-1,2,3,3a,5,6,7,8,11,12,20,23,24,24a-tetradecahydro-10H-9,12-methanocyclopenta[18,19][1,10,3,6]dioxadiazacyclononadecino[11,12-b]quinoline-10-carboxamide]",9.38,> 10.80,,
"C=C[C@@H]1C[C@]1(NC(=O)[C@@H]1C[C@@H]2CN1C(=O)[C@H](C(C)(C)C)NC(=O)O[C@@H]1C[C@H]1CCCCCc1c(nc3ccccc3c1-c1ccccn1)O2)C(=O)NS(=O)(=O)C1(C)CC1 [Example 245, (1aR,5S,8S,10R,22aR)-5-tert-butyl-N-[(1R,2S)-2-ethenyl-1-{[(1-methylcyclopropyl)sulfonyl]carbamoyl}cyclopropyl]-3,6-dioxo-17-(pyridin-2-yl)-1,1a,3,4,5,6,9,10,18,19,20,21,22,22a-tetradecahydro-8H-7,10-methanocyclopropa[18,19][1,10,3,6]dioxadiazacyclononadecino[11,12-b]quinoline-8-carboxamide]",6.89,,9.26,8.85
